Test results from ChEMBL document CHEMBL1154429, “Identifying mutator phenotypes among fluoroquinolone-resistant strains of Streptococcus pneumoniae using fluctuation analysis” (2007).

Columns and labels:
Type in all cases: functional
Streptococcus pneumoniae [1] = assay: Antibacterial activity against Streptococcus pneumoniae 455 with parC S79Y, gyrA S81F mutation by […]
Streptococcus pneumoniae [2] = assay: Antibacterial activity against Streptococcus pneumoniae 3386 with parC S79F, gyrA S81F mutation by […]
Streptococcus pneumoniae [3] = assay: Antibacterial activity against Streptococcus pneumoniae D39-3 with parC S79Y, gyrA S81F mutation by […]

Measured: MIC

C[C@H]1COc2c(N3CCN(C)CC3)c(F)cc3c(=O)c(C(=O)O)cn1c23.C[C@H]1COc2c(N3CCN(C)CC3)c(F)cc3c(=O)c(C(=O)O)cn1c23.O [LEVOFLOXACIN]
> 32 µg/mL: Streptococcus pneumoniae [1] | Streptococcus pneumoniae [2] | Streptococcus pneumoniae [3]
